Results on 10 compounds are retold here after US7713949B2, “Compositions and methods for enhancing paracellular permeability across epithelial and endothelial barriers” (The University of North Carolina at Chapel Hill, priority 2000, dated 2010).

Series [1] relates to MDCK cell monolayers. The series is described as follows: Effect on transepithelial electrical resistance (TEER) across MDCK cell monolayers. It is filed as cell-based, canine. The conditions noted are these: for Effect on TEER: 30-minute treatment; for EC50: 0.5 h, MDCK cells, apical, 30-minute incubation at 37° C., mean ± SD, read-out: EC50 (concentration required to decrease TEER by fifty percent). The method, then:
(§1) For transport studies, MDCK cells, derived from normal proximal epithelial kidney cells of a male cocker spaniel, which is model for transport experiments (Cho, M. J., et al. (1989) Pharm. Res. 6:71-77), were grown on TRANSWELL™ multi-well plates. Each well was seeded with 200,000 cells. The cells were then grown in cell media (MEM with 1% antibiotic, supplemented with 10% fetal bovine serum (FBS) and 1% NEAA), and were maintained at 37° C. and 5% CO2. Confluent cells were grown for four days where they differentiated into epithelial cell monolayers as evidenced by the establishment of a stable TEER.
TEER (expressed as Ω·cm^2) serves as a measure of functional integrity of tight junctions. TEER was measured by an EVOM Epithelial Tissue Voltohmeter (World Precision Instruments, Sarasota, Fla.) and an Endohm-12 electrode (World Precision Instruments, Sarasota, Fla.). TEER values of MDCK cells that formed a functional monolayer ranged between 150-250 Ω·cm^2.
Experiments were initiated by adding 0.5 mL of HBSS supplemented with 10 mM HEPES, pH 7.4 (transport buffer) containing compound or vehicle to the apical side of the TRANSWELL™ multi-well plate. […] Data from each experiment were normalized to the response from the vehicle and were reported as the mean±SD of three experiments performed in triplicate.
The effect of akylphosphocholines on TEER was evaluated at several concentrations, and the concentration that caused a 50% decrease in TEER with respect to the untreated control was defined as EC50 (Liu, D. Z., et al. (1999) J. Pharm. Sci. 88:1161-1168; Liu, D. Z., et al. (1999) J. Pharm. Sci. 88:1169-1174).

For another series, the system named is PLC-γ. The series is described as follows: EGF-stimulated PLC activity ([3H]-inositol phosphate accumulation) in MDCK cells. It is filed as cell-based, canine. As to conditions: 20 ng/ml EGF. The method, then: (§2) Measurement of activity of PLC in MDCK cells was determined by an adaptation of a previously published method (Schachter, J. B., et al. (1997) Neuropharm. 36:1181-1187). MDCK cells were seeded at 400,000 cells/well in a 12-well plate and subsequently cultured for four days. MDCK cell monolayers were then labeled with [^3H]-myo-inositol (1.6 μCi/well in 0.4 ml of inositol-free media) for 24 hours at 37° C. Assays were initiated on labeled cells that were removed from the incubator by immediately supplementing the cells with 100 μl of 250 mM HEPES (pH 7.3), containing 100 mM LiCl with or without compound. Subsequently, the cells were incubated for 30 minutes at 37° C. Immediately after the termination of this incubation, ATP (final concentration: 100 μM) or EGF (20 ng/ml) was added.
(§3) The cells were then incubated at 37° C. for 15 minutes to allow accumulation of [^3H]-inositol phosphates. Incubations were terminated by aspiration of the media and the addition of 1 ml of boiling 10 mM EDTA (pH 8.0). The supernatant was applied to AG1 X8 formate columns for chromatographic isolation of [^3H]-inositol phosphates (Berridge, M. J., et al. (1983) Biochem. J. 212:473-482). The amount of [^3H]-inositol phosphates was measured by liquid scintillation counting in a Packard Tri Carb 4000 Series spectrophotometer. Data from each experiment were normalized to the response observed with 100 μM ATP or 20 ng/ml EGF and were reported as the mean±SD of three experiments performed in triplicate. The IC50 (PLC) was determined by the concentration of compound that causes a 50% decrease in ATP- or EGF-stimulated accumulation of [^3H]-inositol phosphates.

A further series has as its system PLC-β. Kind of series: ATP-stimulated PLC activity ([3H]-inositol phosphate accumulation) in MDCK cells. The conditions noted are these: for Effect on ATP-stimulated PLC (PLC-β) activity: 100 μM ATP; for Effect on ATP-stimulated PLC (PLC-β) activity / IC50: MDCK cells; for IC50: 30 minutes with compound, then 15 minutes stimulation, mean ± SD, read-out: IC50(PLC) (concentration causing fifty percent decrease in ATP- or EGF-stimulated accumulation of [3H]-inositol phosphates). It is filed as cell-based, canine. How it is done: as §2, §3
To determine the ability alkylphosphocholines to inhibit PLC activity, the ability of these compounds to inhibit the ATP-mediated increases in the levels of inositol phosphates was determined. The separation between the counts from basal and ATP-stimulated levels of [^3H]-inositol-phosphates from MDCK cell monolayers was, however, marginal (approximately 1.5-fold) for a reliable determination of the ability of alkylphosphocholines to inhibit PLC activity. To increase this separation, MDCK cells that were transfected with a plasmid that encoded the P2Y2 receptor were employed. The P2Y2 receptor is G-protein coupled receptor that activates PLC (Pawelczyk, T., and Lowenstein, J. M. (1993) Biochem. Pharm. 45:493-497). The separation between the counts from basal and ATP-stimulated levels of [^3H]-inositol-phosphates from MDCK monolayers that express P2Y2 receptors increased to approximately a 3-fold difference (counts from basal and ATP-stimulated levels of [^3H]-inositol-phosphates ranged from 200 to 400 and 700 to 1200 cpm, respectively).

The subject of series [2] is MDCK cell monolayers. The series is described as follows: Effect on [14C]-mannitol flux across MDCK cell monolayers. Type of series: cell-based, canine. The conditions noted are these: for EC10x (concentration that increases mannitol flux by ten fold): MDCK cells, apical, flux measured between 30 and 60 minutes of treatment, mean ± SD. The method, then: as §1
Mannitol, a hydrophilic compound, cannot readily cross the epithelial membrane, and must transverse the epithelium via the paracellular pathway. Therefore, the flux of mannitol through the epithelium is a reflection of the permeability of the paracellular pathway. Detection of mannitol is accomplished with [^3H] or [^14C] radiolabels.
The integrity of the tight junctions of cell monolayers was monitored with the measurement of TEER prior to the experiment. Transport experiments were initiated by replacing the apical media with 0.5 mL of transport buffer containing compound or vehicle, and [^14C]-mannitol. Concentration of [^14C]-mannitol was 25 μM (55 mCi/mmol). Transport rates were monitored by the measurement of the amount of [^14C]-mannitol accumulated in the basolateral side (1.5 mL) during two 30-minute intervals. The amount of radiolabeled [^14C]-mannitol transported was measured by liquid scintillation counting in a Packard Tri Carb 4000 Series spectrophotometer available from Packard Instrument Company of Meriden, Conn. All transport experiments were carried out under sink conditions (transport experiments were designed such that less than 10% of the total amount of [^14C]-mannitol was present on the basolateral side at any given time). The effect of alkylphosphocholines on the transport of [^14C]-mannitol was normalized to the transport of [^14C]-mannitol in the vehicle-treated cells and was reported as the mean±SD of three experiments performed in triplicate. The EC10x was determined by the concentration of compound that causes a 10-fold increase in mannitol flux with respect to the vehicle treated control.

The conditions of series [3]: in animals; cited from earlier work.
Another series concerns PLC. As to conditions: Perrella et al. 1994; cited from earlier work.

Some results are limits rather than exact numbers.

On to `COc1ccc2c(c1)CCC1C2CCC2(C)C(NCCCCCCN3C(=O)C=CC3=O)CCC12` (centres unmarked) [U-73,122, reference compound], for which the “Effect on TEER” value in the series on MDCK cell monolayers [1] was “potently decreased TEER”. Besides, the EC50 with MDCK cell monolayers [1] (Canis lupus familiaris) was 6 ± 2 µM. Moreover, in the series with PLC-γ, the “Effect on EGF-stimulated PLC-γ activity” value is reported as “had no effect on EGF-stimulated PLC-γ activity”. In the series on PLC-β, the “Effect on ATP-stimulated PLC (PLC-β) activity” value (from here on “Effect on ATP-stimulated PLC”) was “inhibited ATP-stimulated PLC-β activity” and the IC50 was determined as 7 ± 3 µM. Also, the “EC10x (concentration that increases mannitol flux by ten fold)” value in the series on MDCK cell monolayers [2] was 6 ± 2 µM. In the series on MDCK cell monolayers [2] (interval between 30 and 60 minutes of treatment), the “Effect on mannitol flux” value is listed as “increased mannitol flux”.
Turning to `CCCCCCCCCCCCCCOP(=O)([O-])OCC[N+](C)(C)C` [C14], in the series on MDCK cell monolayers [1] (Canis lupus familiaris), the EC50 is 44 ± 11 µM. Moreover, the IC50 in the series on PLC-β was determined as 73 ± 9 µM. In the series on MDCK cell monolayers [2], the “EC10x (concentration that increases mannitol flux by ten fold)” value is 91 ± 11 µM.
Take `O=c1oc2ccccc2cc1[N+](=O)[O-]` [3-nitrocoumarin, reference compound]: the EC50 with MDCK cell monolayers [1] (Canis lupus familiaris) amounted to 24 ± 1 µM. For the same compound, the “Effect on EGF-stimulated PLC-γ activity” value with PLC-γ was “inhibited EGF-stimulated PLC-γ activity”. For the same compound, in the series on PLC-β, the “Effect on ATP-stimulated PLC” value was “no inhibitory activity toward PLC-β” and the IC50 stood at 21 ± 5 µM. Moreover, the “EC10x (concentration that increases mannitol flux by ten fold)” value with MDCK cell monolayers [2] was 34 ± 5 µM.
For the compound `CCCCCCCCCCCCCCCCOP(=O)([O-])OCC[N+](C)(C)C` [C16, Hexadecylphosphocholine], in the series on MDCK cell monolayers [1] (Canis lupus familiaris), the EC50 was found to be 29 ± 5 µM. Besides, the activity at 30 µM in the series on MDCK cell monolayers [1] (Canis lupus familiaris, MDCK, 2 h, 30 μM, over a two-hour period, read-out: TEER, % of control values) is below 10%. For the same compound, the “Effect on EGF-stimulated PLC-γ activity” value with PLC-γ is “had no effect on EGF-stimulated PLC-γ activity”. Further, in the series with PLC-β, the “Effect on ATP-stimulated PLC” value is “inhibited ATP-stimulated PLC-β activity” and the IC50 came to 36 ± 18 µM. In addition, in the series on MDCK cell monolayers [2], the “EC10x (concentration that increases mannitol flux by ten fold)” value is 30 ± 8 µM.
Consider `CCCCCCCCCCCCOP(=O)([O-])OCC[N+](C)(C)C` [C12, Dodecylphosphocholine], for which, in the series on MDCK cell monolayers [1] (Canis lupus familiaris), the EC50 came out at 733 ± 32 µM. The “Full extent of PLC inhibition” value in the series with PLC-β (ATP-stimulated inositol phosphate production) turned out to be 50%. In addition, in the series on PLC-β, the IC50 came out at 275 ± 135 µM. Besides, the “EC10x (concentration that increases mannitol flux by ten fold)” value in the series with MDCK cell monolayers [2] was 900 ± 100 µM.
In the case of `COc1ccc2c(c1)CC[C@@H]1[C@@H]2CC[C@]2(C)[C@@H](NCCCCCCN3C(=O)CCC3=O)CC[C@@H]12` [U-73,343, reference compound], the “Effect on TEER” value in the series with MDCK cell monolayers [1] is reported as “did not decrease TEER”. In the series with PLC-β, the “Effect on ATP-stimulated PLC” value was “did not decrease TEER or ATP-stimulated PLC activity”.
For `CCCCCCCCCCCCCCCCCCOP(=O)([O-])OCC[N+](C)(C)C` [C18], in the series on MDCK cell monolayers [1] (Canis lupus familiaris), the EC50 was 59 ± 8 µM. In addition, the IC50 in the series on PLC-β came to 30 ± 2 µM. Also, in the series with MDCK cell monolayers [2], the “EC10x (concentration that increases mannitol flux by ten fold)” value is 66 ± 11 µM.
With `CO[C@@]1(NC(=O)Cc2cccs2)C(=O)N2C(C(=O)O)=C(COC(N)=O)CS[C@@H]21` [cefoxitin], the Oral bioavailability result in series [3] is “less than five percent”.
In the case of `CCCCCCCCCCCCCCCCCCCCOP(=O)([O-])OCC[N+](C)(C)C` [C20], the EC50 with MDCK cell monolayers [1] (Canis lupus familiaris) was determined as 71 ± 8 µM. Besides, the IC50 in the series on PLC-β came out at 48 ± 5 µM. Moreover, the “EC10x (concentration that increases mannitol flux by ten fold)” value in the series with MDCK cell monolayers [2] was 73 ± 1 µM.
Take `O=c1oc2cc(O)ccc2cc1[N+](=O)[O-]` [7-hydroxy-3-nitrocoumarin]: the “PLC inhibition, previously reported” value in the series on PLC is given as “previously reported not to inhibit PLC”.
